Results from patent publication US20100120747A1, “COMBINATION OF A CHOL[…] AND A COMPOUND WITH 5-HT6 RECEPTOR AFFINITY” (priority 2006, published 2010).
Structures can show the parent of a compound that is named as a salt.

System: adult male Lister hooded rats
Test: Novel object discrimination (NOD) test, 4 h inter-trial interval
Format: in vivo, rat
Conditions: FIG. 1; for effect in the NOD test: 4 h ITI, each amount given by itself or both amounts combined
Method: II) Behavioural Assessment of Cognitive Effects of Compounds with 5-HT6 Receptor Affinity: Novel Object Discrimination (NOD)
Two separate groups of 12 adult male Lister hooded rats are tested in the NOD paradigm using 4 h inter-trial interval (ITI) delay between the familiarisation and choice trials which should ensure impaired discrimination and permit the pro-cognitive effects of the compounds to be evaluated.
In two separate groups of animals compound [1140] (6-chloro-N-(3-(2-(dimethylamino)ethyl)-1H-indol-5-yl)imidazo[2,1-b]thiazole-5-sulfonamide) and donepezil HCl (or vehicle) were administered on four separate occasions, at seven day intervals. The semi-randomised design for drug administration ensures that for each group, each animal receives one of the four treatment combinations once during the study: compound [1140] and donepezil HCl, compound [1140] and vehicle, donepezil HCl and vehicle, vehicle and vehicle. […] Drug pre-treatment occurred 20 min prior to the first NOD trial to ensure optimal drug plasma levels during acquisition and consolidation phases.
To maximise the opportunity to see a synergistic effect, the animals received one dose of donepezil HCl i.p. (0.05 mg/kg for group 1 and 0.1 mg/kg for group 2) in combination with the selected dose of compound [1140] (1 mg/kg) or the vehicle (saline containing 0.5 methylcellulose, 2 ml/kg).
The exact experimental protocol is outlined in detail in:
M. V. King et al, 5-HT6 receptor antagonist reverse delay-dependent deficits in novel object discrimination by enhancing consolidation—an effect sensitive to NMDA receptor antagonism, Neuropharmacology 2004, 47, 195-204 and Woolley et al. Reversal of cholinergic-induced deficit in a rodent model of recognition memory by the selective 5-HT6 receptor antagonist, Ro 04-6790; Psychopharmacology 2003, 170, 358-367.
The behavioural assessment of cognitive effects of compounds with 5-HT6 receptor affinity with the novel object discrimination (NOD) test was carried out as described above.
The results are depicted in FIG. 1. […]

| Structure (SMILES) | effect in the NOD test | potentiation of the action of compound [1140] in the NOD test (donepezil given with compound [1140]) |
| --- | --- | --- |
| COc1cc2c(cc1OC)C(=O)C(CC1CCN(Cc3ccccc3)CC1)C2 (stereo not drawn) [donepezil hydrochloride] | does not have any effect | potentiates the action |
| CN(C)CCc1c[nH]c2ccc(NS(=O)(=O)c3c(Cl)nc4sccn34)cc12 [compound [1140], 6-chloro-N-(3-(2-(dimethylamino)ethyl)-1H-indol-5-yl)imidazo[2,1-b]thiazole-5-sulfonamide] | does not have any effect | – |
